Assay results: US4710499A, “New derivatives of pyridazine active on the central nervous system” (priority 1981, dated 1987)
Where a name gives a salt, the structure may show the parent alone. Read-outs that look alike come from different tables or passages of the source.

How the values were obtained:
[1] = system: convulsivant effects of strychnine; assay: Anti-Strychnine Activity (oral, mice); type: in vivo; settings: for ED50: Mus musculus, po, read-out: Inhibition of the convulsivant effects of Strychinine ED50
Experimental: (§1) The anticonvulsivant activity of the derivatives was assessed with respect to two chemical agents: strychnine and bicuculline, and with respect to electric shock. In these various tests, the products were compared with the minaprine described in French Patent 2 141 697 mentioned hereinabove.
The products are administered by the oral route 30 minutes before the strychnine 0.9 mg/kg i.p.. The occurrence of tetanic crises as well as mortality are noted during the 60 minutes following administration of strychnine.
(§2) In the three cases, the products are administered in a range of doses to batches of 10 mice per dose.

[2] = system: convulsivant effects of electric shock; assay: Anti-Electric Shock Activity (oral, mice); type: in vivo; settings: for ED50: Mus musculus, po, read-out: Inhibition of the convulsivant effects of electric shock ED50; for anti-convulsivant activity with respect to electric shock (in words): oral
Experimental: The anticonvulsivant activity of the derivatives was assessed with respect to two chemical agents: strychnine and bicuculline, and with respect to electric shock.
Anti-Electric Shock Activity
The electric shock was given to the animal via corneal electrodes. […] The animals not presenting extension of the rear limbs were considered as protected.
as §2

[3] = Acute toxicity, mortality within 24 hours (oral, mice); type: in vivo; settings: mouse, in vivo
[4] = system: convulsivant effects of bicuculline; assay: Anti-Bicuculline Activity (oral, mice); type: in vivo; settings: for ED50: Mus musculus, read-out: Inhibition of the convulsivant effects of Bicuculline ED50
Experimental: as §1
Anti-Bicuculline Activity
The products are administered by the oral route 30 minutes before the bicuculline 0.9 mg/kg i.v.. The occurrence of clonic, tonic crises as well as mortality are noted during the 60 minutes following administration of bicuculline.
as §2

[5] = system: mice; assay: Acute toxicity, mortality within 24 hours (oral, mice); type: in vivo; settings: for toxic effect at the dose of 500 mg/kg p.os (in words): mouse, in vivo
[6] = per os; cited from earlier work
[7] = mice, per os, 30 minutes before electric shock (12.5 volts for 0.5 seconds), corneal electrodes, 10 mice per dose
[8] = mice, oral, 250 mg/kg, 24 hours, read-out: p. cent of mortality at 250 mg/kg
[9] = mice, oral, 500 mg/kg, 24 hours, read-out: p. cent of mortality at 500 mg/kg
[10] = mice, oral, 1000 mg/kg, 24 hours, read-out: p. cent of mortality at 1000 mg/kg
[11] = 30 minutes before bicuculline 0.9 mg/kg i.v., 10 mice per dose

SMILES	ED50 [1] [mg/kg]	ED50 [2, 7] [mg/kg]	mortality at 24 h [3, 8] [%]	mortality at 24 h [3, 9] [%]	mortality at 24 h [3, 10] [%]	ED50 [4, 11] [mg/kg]	anti-convulsivant activity with respect to strychnine (in words) ([1]; mice, oral)	anti-convulsivant activity with respect to electric shock (in words) ([2]; mice)	mortality at 24 h ([3]; po, 250 mg/kg) [%]	mortality at 24 h ([3]; po, 500 mg/kg) [%]	mortality at 24 h ([3]; po, 1000 mg/kg) [%]	anti-convulsivant activity with respect to bicuculline (in words) [4]	other results
Cc1cc(-c2ccccc2)nnc1NCCO [CM 30094, 3-(2-HYDROXY ETHYLAMINO)4-METHYL 6-PHENYL PYRIDAZINE]	119	107	0	0	0	286	–	–	–	–	–	–	–
Cc1cc(-c2ccccc2)nnc1NCC(C)O (stereo not shown) [CM 30096]	92	209	–	–	–	175	particularly powerful	still considerable	0	20	100	still considerable	toxic effect at the dose of 500 mg/kg p.os (in words) [5]: have a toxic effect
Cc1cc(-c2ccccc2)nnc1NCCCCO [CM 30097]	–	–	0	0	100	–	–	–	–	–	–	–	–
COCCNc1nnc(-c2ccccc2)cc1C [CM 30310, 3-(2-METHOXY ETHYLAMINO)4-METHYL 6-PHENYL PYRIDAZINE]	158	78	0	0	100	136	particularly powerful	–	–	–	–	–	–
OCCNc1nnc(-c2ccccc2)cc1-c1ccccc1 [CM 30339]	145	~200	–	–	–	86	particularly powerful	–	0	60	60	–	toxic effect at the dose of 500 mg/kg p.os (in words) [5]: have a toxic effect
COCCNc1nnc(-c2ccccc2)cc1-c1ccccc1 [CM 30340, 3-(2-methoxyethylamino)4,6-diphenyl pyridazine]	–	–	0	0	20	–	–	–	–	–	–	–	–
CCCCNc1nnc(-c2ccccc2)cc1C [CM 30434, 3-BUTYLAMINO 4-METHYL 6-PHENYL PYRIDAZINE]	–	–	0	0	0	–	–	–	–	–	–	–	–
Cc1cc(-c2ccccc2)nnc1NCCN1CCOCC1 [Minaprine, reference compound]	–	–	–	–	–	–	totally inactive	totally inactive	100	100	100	totally inactive	Inhibition of the convulsivant effects of Strychinine ED50 ([1]; mice, oral, 30 minutes before strychnine 0.9 mg/kg i.p., 10 mice per dose): Inactive; Inhibition of the convulsivant effects of electric shock ED50 [2, 7]: Inactive; mortality ([3]; po, 100 mg/kg): 20%; toxicity, overall (in words) ([5]; mice, p.os): much greater toxic effect; Inhibition of the convulsivant effects of Bicuculline ED50 [4, 11]: Inactive; dose at which the product shows itself to be convulsivant [6]: greater than 100 mg/kg
CCCC(CCC)C(=O)O [Sodium Valproate, sodium salt of valproic acid, reference compound]	480	–	–	–	–	234	effective dose 50 most often greater than that of the products of the invention	effective dose 50 most often greater than that of the products of the invention	–	–	–	effective dose 50 most often greater than that of the products of the invention	ED50 [2]: 290 mg/kg
